Experimental data as given in patent US20230131993A1 (priority 2020, published 2023).
Like-named read-outs stand apart in the source and are kept apart here.

How the values were obtained:
[1] = during storage; cited from earlier work
mast cell = conditions: through the interaction with the neurokinin-1 receptor; cited from earlier work
[2] = Color stability of DragoCalm before and after Oxipres treatment (L*a*b* system, Δb*); assay type: physicochemical; parameters: key: L*a*b* Δb* = b* change before vs after Oxipres; higher = more discolored; conditions: color difference before/after Oxipres treatment
Description: (i.e. hydroxyacetophenone).
Furthermore, the color of the DragoCalm® samples was measured before and after the Oxipres treatment by using the L*a*b* system (Lico 690). The b* value describes the discoloration in the yellowish/red/brownish area, the Δ b* value describes the difference of color before and after Oxipres treatment. The higher the Δ b* value the more discolorated is the test solution.

[3] = Oxipres accelerated stability test of DragoCalm: Avenanthramide C content by HPLC before and after treatment; conditions: for degradation inhibitory activity, ranking of single stabilizers: as demonstrated by the examples; for Degradation (%) of Avenanthramide C: DragoCalm, Oxipres 5 bars oxygen, 24 hours, 70° C.
Description: The oxidative stability of the glycerol/water-based solution of an DragoCalm® extract as described below with different stabilizer was evaluated against a glycerol/water-based solution of an oat extract without stabilizer.
The Oxipres device allows the determination of oxidative resistance (shelf life) of oils. The device is a modification of the bomb method according to ASTM D941, which is based on oxidation with oxygen. The test runs under elevated pressure and temperature, through which the degradation process is accelerated. During the test, the consumption of oxygen results in a pressure drop in the vessel. Decrease of pressure indicates more consumption of oxygen and higher oxidation of the test product.
Thus, it is an accelerated stability test due to harder conditions such as temperature and pressure.
(§1) Stabilizers were presolved in DragoCalm® under stirring at room temperature or, if necessary at a temperature from 40 to 50° C. […] The DragoCalm® samples (15 g) were placed into the reaction vessel and were either exposed to 5 bars of oxygen for 24 hours at 70° C. using the Oxipres device.
(§2) The evaluation of the samples, i.e. the determination of content of Avns was determined by HPLC (comparison before and after Oxipres treatment).
The content of Avenanthramide C was determined by HPLC before and after Oxipres treatment.

[4] = 24 h, 0.1 %
Description: as §1, §2
(§3) The test procedure and the evaluation of the samples were carried out in the same manner as described above for Avenanthramide C.

[5] = Oxipres stability test of DragoCalm: Avenanthramide L; conditions: before and after Oxipres treatment
Description: as §1, §2, §3

[6] = Oxipres stability test of DragoCalm: Avenanthramide B; conditions: before and after Oxipres treatment, additive 0.1 %
Description: as §1, §2, §3

[7] = in DragoCalm after Oxipres treatment (5 bars oxygen, 24 hours, 70° C.), additive 0.05 %
[8] = in DragoCalm after Oxipres treatment (5 bars oxygen, 24 hours, 70° C.), additive 0.10 %
[9] = in DragoCalm before Oxipres treatment, additive 0.05 %
[10] = in DragoCalm before Oxipres treatment, additive 0.10 %

Molecule | Δb* ([2]; additive 0.10 %) | Avenanthramide C End (ppm) [3, 8] | Avenanthramide C Start (ppm) [3, 10] | further results
O=C(CCc1ccc(O)cc1)Nc1ccccc1C(=O)O [Dihydroavenanthramide D, 2-{[3-(4-Hydroxyphenyl)propanoyl]amino}benzoic acid] | – | – | – | stability (known, words) [1]: more stable in comparison to Avenanthramide C; mast cell degranulation (mast cell): inhibits mast cell degranulation
O=C([O-])CN(CCN(CC(=O)[O-])CC(=O)O)CC(=O)O.[Na+].[Na+] [Disodium EDTA] | 5.0 | – | – | Avenanthramide C End (ppm) [3]: 9 ppm; Avenanthramide C Start (ppm) [3]: 16 ppm
O=C(O)CC(O)(CC(=O)O)C(=O)O [Citric acid] | 8.2 | 1 ppm | 18 ppm | Δb* ([2]; additive 0.05 %): 6.5; Avenanthramide C End (ppm) [3, 7]: 1 ppm; Avenanthramide C Start (ppm) [3, 9]: 26 ppm
O=C(O)CC(O)C(=O)O (stereo not shown) [Malic acid] | 8.3 | 1 ppm | 11 ppm | degradation inhibitory activity, ranking of single stabilizers [3]: most single effective alpha hydroxy acids
O=C(C=Cc1ccc(O)c(O)c1)Nc1ccc(O)cc1C(=O)O [Avenanthramide C, N-(3′-4′-dihydroxycinnamoyl)-5-hydroxyanthranilic acid] | – | – | – | stability (known, words) [1]: low stability
O=P(O)(O)O[C@H]1[C@H](OP(=O)(O)O)[C@@H](OP(=O)(O)O)[C@H](OP(=O)(O)O)[C@@H](OP(=O)(O)O)[C@H]1OP(=O)(O)O [Phytic Acid] | 8.2 | 2 ppm | 14 ppm | Degradation of Avenanthramide L (%) [4]: 20.0%
Trisodium Ethylenediamine Disuccinate | 7.0 | 3 ppm | 9 ppm | Degradation of Avenanthramide L (%) ([5]; additive 0.10 %): 0%; Degradation of Avenanthramide B (%) [6]: 7.4%; Degradation (%) of Avenanthramide C ([3]; additive 0.10 %): 66.7%
CC(=O)c1ccc(O)cc1 [4-Hydroxyacetophenone] | 7.3 | 1 ppm | 18 ppm | Degradation of Avenanthramide B (%) [6]: 18.5%; Degradation (%) of Avenanthramide C ([3]; additive 0.10 %): 94.4%
O=C([O-])CC[C@@H](C(=O)[O-])N(CC(=O)[O-])CC(=O)[O-].[Na+].[Na+].[Na+].[Na+] [Tetrasodium Glutamate Diacetate] | 7.8 | 1 ppm | 13 ppm | –
O=C1O[C@H]([C@@H](O)CO)C(O)=C1O [Ascorbic acid] | – | – | – | Δb* ([2]; additive 0.05 %): 8.2; degradation inhibitory activity, ranking of single stabilizers [3]: most effective single antioxidant; Avenanthramide C End (ppm) [3, 7]: 3 ppm; Avenanthramide C Start (ppm) [3, 9]: 16 ppm
CC(O)C(=O)O (stereo not shown) [Lactic acid] | 8.4 | 1 ppm | 12 ppm | –
O=C(O)C(O)C(O)C(=O)O (stereo not shown) [Tartaric acid] | 9.4 | 1 ppm | 11 ppm | degradation inhibitory activity, ranking of single stabilizers [3]: most single effective alpha hydroxy acids
CC(C(=O)[O-])N(CC(=O)[O-])CC(=O)[O-].[Na+].[Na+].[Na+] (stereo not shown) [Trisodium MGDA, trisodium methylglycinediacetic acid] | – | – | – | Degradation of Avenanthramide L (%) ([5]; additive 0.2 %): 20.0%
